Measurements as given in ChEMBL document CHEMBL1201862, “PubChem BioAssay data set” (2004).
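Cells were grown in 96-well plates and exposed to each compound for 48 hours at five concentrations; endpoints were interpolated linearly between bracketing concentrations, or set to the highest concentration if not reached. At the GI50, growth is halved.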 Active and inactive are the calls of the source. Cut-off read from the data, not from the text of the source: active = GI50 up to about 1.1 µM and inactive = higher.

Key:
Experiment in all cases: DTP human tumour cell line panel, 48 h
MOLT-4 = test system: MOLT-4
SNB-19 = test system: SNB-19
Hs-578T = test system: Hs-578T
EKVX = test system: EKVX
NCI-H460 = test system: NCI-H460
UACC-62 = test system: UACC-62
SN12C = test system: SN12C
NCI/ADR-RES = test system: NCI/ADR-RES
MDA-N = test system: MDA-N
ACHN = test system: ACHN
SF-268 = test system: SF-268
786-0 = test system: 786-0
PC-3 = test system: PC-3
K562 = test system: K562
M14 = test system: M14
NCI-H226 = test system: NCI-H226
CAKI-1 = test system: CAKI-1
RPMI-8226 = test system: RPMI-8226
T47D = test system: T47D
HOP-92 = test system: HOP-92
SK-OV-3 = test system: SK-OV-3
UO-31 = test system: UO-31
OVCAR-8 = test system: OVCAR-8
HOP-62 = test system: HOP-62
COLO 205 = test system: COLO 205
SR = test system: SR
A498 = test system: A498
SK-MEL-2 = test system: SK-MEL-2
OVCAR-5 = test system: OVCAR-5
HCT-116 = test system: HCT-116
SW-620 = test system: SW-620
SK-MEL-28 = test system: SK-MEL-28
OVCAR-3 = test system: OVCAR-3
CCRF-CEM = test system: CCRF-CEM
DU-145 = test system: DU-145
OVCAR-4 = test system: OVCAR-4
U-251 = test system: U-251
SF-295 = test system: SF-295
KM12 = test system: KM12
A549 = test system: A549
IGROV-1 = test system: IGROV-1
HL-60 = test system: HL-60
SK-MEL-5 = test system: SK-MEL-5
HCT-15 = test system: HCT-15
MDA-MB-231 = test system: MDA-MB-231
SNB-75 = test system: SNB-75
NCI-H23 = test system: NCI-H23
MCF7 = test system: MCF7
UACC-257 = test system: UACC-257
HT-29 = test system: HT-29
MDA-MB-435 = test system: MDA-MB-435
TK-10 = test system: TK-10
HCC 2998 = test system: HCC 2998
SF-539 = test system: SF-539
Malme-3M = test system: Malme-3M
LOX IMVI = test system: LOX IMVI
NCI-H522 = test system: NCI-H522
RXF 393 = test system: RXF 393

With `C=C[C@@H](OCOCC[Si](C)(C)C)[C@@H](CC)OC(CCCOC(=O)C(C)(C)C)OC` (some centres not stated) the GI50 (MOLT-4) was 91.2 µM (inactive), the GI50 (SNB-19) was 16.3 µM (inactive) and the GI50 (Hs-578T) was 27.1 µM (inactive). The GI50 (EKVX) was 25.3 µM (inactive), the GI50 (NCI-H460) was 54.2 µM (inactive) and the GI50 (UACC-62) was 25.1 µM (inactive). For the same compound, the GI50 (SN12C) was 45.3 µM (inactive), the GI50 (NCI/ADR-RES) was 30.1 µM (inactive) and the GI50 (MDA-N) was 45.1 µM (inactive). The GI50 (ACHN) was 36.7 µM (inactive), the GI50 (SF-268) was 33.3 µM (inactive) and the GI50 (786-0) was 25 µM (inactive). For the same compound, the GI50 (PC-3) was 37.3 µM (inactive), the GI50 (K562) was 60.4 µM (inactive) and the GI50 (M14) was 36.4 µM (inactive). The GI50 (NCI-H226) was 21.9 µM (inactive), the GI50 (CAKI-1) was 53.7 µM (inactive) and the GI50 (RPMI-8226) was 41.7 µM (inactive). For the same compound, the GI50 (T47D) was 19.4 µM (inactive), the GI50 (HOP-92) was 81.1 µM (inactive) and the GI50 (SK-OV-3) was > 100 µM (inactive). The GI50 (UO-31) was 40 µM (inactive), the GI50 (OVCAR-8) was 38.5 µM (inactive) and the GI50 (HOP-62) was 36.7 µM (inactive). The GI50 (COLO 205) was 29.9 µM (inactive), the GI50 (SR) was 41.6 µM (inactive) and the GI50 (A498) was 43.8 µM (inactive). For the same compound, the GI50 (SK-MEL-2) was 21.4 µM (inactive), the GI50 (OVCAR-5) was 21.7 µM (inactive) and the GI50 (HCT-116) was 21 µM (inactive). For the same compound, the GI50 (SW-620) was 26.1 µM (inactive), the GI50 (SK-MEL-28) was 34.5 µM (inactive) and the GI50 (OVCAR-3) was 40.9 µM (inactive). For the same compound, the GI50 (CCRF-CEM) was 27.9 µM (inactive), the GI50 (DU-145) was 43.7 µM (inactive) and the GI50 (OVCAR-4) was 26.4 µM (inactive). The GI50 (U-251) was 21 µM (inactive), the GI50 (SF-295) was 22 µM (inactive) and the GI50 (KM12) was 24 µM (inactive). For the same compound, the GI50 (A549) was 31.5 µM (inactive), the GI50 (IGROV-1) was 49 µM (inactive) and the GI50 (HL-60) was 18.4 µM (inactive). For the same compound, the GI50 (SK-MEL-5) was 31.3 µM (inactive), the GI50 (HCT-15) was 22.1 µM and the GI50 (MDA-MB-231) was 66.1 µM (inactive). The GI50 (SNB-75) was 31 µM (inactive), the GI50 (NCI-H23) was 28.3 µM (inactive) and the GI50 (MCF7) was 21.8 µM (inactive). The GI50 (UACC-257) was 34.6 µM (inactive), the GI50 (HT-29) was 29.4 µM (inactive) and the GI50 (MDA-MB-435) was 38.5 µM (inactive). For the same compound, the GI50 (TK-10) was 14.9 µM (inactive).
With `Cc1ccc(NC(=O)CC(=O)n2nc(C)c(/N=N/c3ccc(S(=O)(=O)CCOS(=O)(=O)O)cc3)c2C)cc1` the GI50 (MOLT-4) was > 100 µM (inactive), the GI50 (SNB-19) was > 100 µM (inactive) and the GI50 (Hs-578T) was > 100 µM (inactive). The GI50 (EKVX) was > 100 µM (inactive), the GI50 (NCI-H460) was > 100 µM (inactive) and the GI50 (UACC-62) was > 100 µM (inactive). For the same compound, the GI50 (SN12C) was > 10 µM (inactive), the GI50 (HCC 2998) was > 100 µM (inactive) and the GI50 (SF-539) was > 100 µM (inactive). For the same compound, the GI50 (NCI/ADR-RES) was > 100 µM (inactive), the GI50 (MDA-N) was > 100 µM (inactive) and the GI50 (ACHN) was > 100 µM (inactive). The GI50 (SF-268) was > 100 µM (inactive), the GI50 (786-0) was > 100 µM (inactive) and the GI50 (PC-3) was > 100 µM (inactive). For the same compound, the GI50 (K562) was > 100 µM (inactive), the GI50 (M14) was > 100 µM (inactive) and the GI50 (NCI-H226) was > 100 µM (inactive). The GI50 (RPMI-8226) was > 100 µM (inactive), the GI50 (T47D) was > 100 µM (inactive) and the GI50 (SK-OV-3) was > 100 µM (inactive). For the same compound, the GI50 (UO-31) was > 100 µM (inactive), the GI50 (OVCAR-8) was > 100 µM (inactive) and the GI50 (HOP-62) was > 100 µM (inactive). For the same compound, the GI50 (COLO 205) was > 100 µM (inactive), the GI50 (A498) was > 100 µM (inactive) and the GI50 (SK-MEL-2) was > 100 µM (inactive). For the same compound, the GI50 (OVCAR-5) was > 100 µM (inactive), the GI50 (Malme-3M) was > 100 µM (inactive) and the GI50 (HCT-116) was > 100 µM (inactive). The GI50 (LOX IMVI) was > 100 µM (inactive), the GI50 (SW-620) was > 100 µM (inactive) and the GI50 (NCI-H522) was > 100 µM (inactive). For the same compound, the GI50 (SK-MEL-28) was > 100 µM (inactive), the GI50 (OVCAR-3) was > 100 µM (inactive) and the GI50 (CCRF-CEM) was > 100 µM (inactive). For the same compound, the GI50 (DU-145) was > 100 µM (inactive), the GI50 (U-251) was > 100 µM (inactive) and the GI50 (SF-295) was 97.1 µM (inactive). The GI50 (KM12) was > 100 µM (inactive), the GI50 (A549) was > 100 µM (inactive) and the GI50 (IGROV-1) was > 100 µM (inactive). The GI50 (HL-60) was > 100 µM (inactive), the GI50 (SK-MEL-5) was > 100 µM (inactive) and the GI50 (HCT-15) was over 10 µM. For the same compound, the GI50 (MDA-MB-231) was > 100 µM (inactive), the GI50 (SNB-75) was > 100 µM (inactive) and the GI50 (NCI-H23) was > 100 µM (inactive). For the same compound, the GI50 (MCF7) was > 100 µM (inactive), the GI50 (RXF 393) was > 100 µM (inactive) and the GI50 (UACC-257) was 80 µM (inactive). For the same compound, the GI50 (HT-29) was > 100 µM (inactive), the GI50 (MDA-MB-435) was > 100 µM (inactive) and the GI50 (TK-10) was > 100 µM (inactive).
In the case of `CC1C(=O)C(C)C(c2ccccc2)N(C)C1c1ccccc1` (configuration not stated), the GI50 (MOLT-4) is reported as 34.5 µM (inactive), the GI50 (SR) is reported as 32.3 µM (inactive) and the GI50 (OVCAR-5) is reported as 63.8 µM (inactive). For the same compound, the GI50 (HL-60) was 39.8 µM (inactive) and the GI50 (HT-29) was 47.6 µM (inactive).
`CCOC(=O)c1cnc2oc3ccc(O)cc3c2c1C` was tested, and the GI50 (MOLT-4) was 47.4 µM (inactive), the GI50 (SNB-19) was > 100 µM (inactive) and the GI50 (Hs-578T) was 35.2 µM (inactive). For the same compound, the GI50 (EKVX) was 35 µM (inactive), the GI50 (NCI-H460) was > 100 µM (inactive) and the GI50 (UACC-62) was > 100 µM (inactive). The GI50 (SN12C) was > 100 µM (inactive), the GI50 (HCC 2998) was > 100 µM (inactive) and the GI50 (SF-539) was 39.8 µM (inactive). The GI50 (NCI/ADR-RES) was 41.6 µM (inactive), the GI50 (MDA-N) was > 100 µM (inactive) and the GI50 (ACHN) was > 100 µM (inactive). For the same compound, the GI50 (786-0) was > 100 µM (inactive), the GI50 (PC-3) was > 100 µM (inactive) and the GI50 (K562) was > 100 µM (inactive). For the same compound, the GI50 (M14) was > 100 µM (inactive), the GI50 (NCI-H226) was > 100 µM (inactive) and the GI50 (CAKI-1) was 67 µM (inactive). The GI50 (RPMI-8226) was > 100 µM (inactive), the GI50 (T47D) was 38.5 µM (inactive) and the GI50 (HOP-92) was > 100 µM (inactive). For the same compound, the GI50 (SK-OV-3) was 53.6 µM (inactive), the GI50 (OVCAR-8) was 61.8 µM (inactive) and the GI50 (COLO 205) was > 100 µM (inactive). The GI50 (SR) was 74 µM (inactive), the GI50 (A498) was 98.2 µM (inactive) and the GI50 (SK-MEL-2) was > 100 µM (inactive). The GI50 (OVCAR-5) was > 100 µM (inactive), the GI50 (Malme-3M) was 29.9 µM (inactive) and the GI50 (HCT-116) was > 100 µM (inactive). The GI50 (LOX IMVI) was > 100 µM (inactive), the GI50 (SW-620) was > 100 µM (inactive) and the GI50 (SK-MEL-28) was > 100 µM (inactive). For the same compound, the GI50 (OVCAR-3) was 33.9 µM (inactive), the GI50 (CCRF-CEM) was 32.7 µM (inactive) and the GI50 (DU-145) was > 100 µM (inactive). The GI50 (OVCAR-4) was 33.7 µM (inactive), the GI50 (U-251) was > 100 µM (inactive) and the GI50 (SF-295) was 78.7 µM (inactive). The GI50 (A549) was > 100 µM (inactive), the GI50 (HL-60) was > 100 µM (inactive) and the GI50 (SK-MEL-5) was 69.3 µM (inactive). For the same compound, the GI50 (HCT-15) was over 100 µM, the GI50 (MDA-MB-231) was > 100 µM (inactive) and the GI50 (NCI-H23) was > 100 µM (inactive). The GI50 (MCF7) was > 100 µM (inactive), the GI50 (RXF 393) was > 100 µM (inactive) and the GI50 (UACC-257) was > 100 µM (inactive). For the same compound, the GI50 (HT-29) was > 100 µM (inactive), the GI50 (MDA-MB-435) was > 100 µM (inactive) and the GI50 (TK-10) was 57.4 µM (inactive).
